{
  "source": "patent US9603896B2",
  "about": "“Peptide compounds and methods of production and use thereof” (priority 2012, dated 2017)",
  "key": {"[1]": {"test_system": "Pseudomonas aeruginosa ATCC® 27853™", "assay_type": "cell-based", "design": "Log reduction of Pseudomonas: dose or concentration left out as unconfirmed", "conditions": "for Effects of Peptide Compounds on Pseudomonas aeruginosa ATCC ® 27853 ™: Table 6, 5 × 10^3 CFU/ml unless italicized = 1 × 10^5 CFU/ml"}, "[2]": {"test_system": "E. coli ATCC® strain 25922™", "assay_type": "cell-based, Escherichia coli", "design": "Log reduction of E. coli: dose or concentration left out as unconfirmed; Effects of Peptide Compounds on Escherichia coli ATCC ® 25922 ™: unit not given here", "conditions": "for Effects of Peptide Compounds on Escherichia coli ATCC ® 25922 ™: Table 6, 5 × 10^3 CFU/ml unless italicized = 1 × 10^5 CFU/ml", "description": "The three peptide compounds BCC01-5RMP (SEQ ID NO:21), BCC02-5RMP (SEQ ID NO:22), and BCC03-5RMP (SEQ ID NO:23) were assayed for in vitro bactericidal activity against Pseudomonas aeruginosa, Escherichia coli, Salmonella typhimurium, and Acinetobacter baumannii. […] The CFU remaining at the end of 60 to 180 minute incubation was determined, and the data plotted as a log reduction in CFU/ml.\nTables 4-6 show the results of various peptides and peptide compounds against P. aeruginosa and E. coli strains. Tables 4 and 5 show the results of an investigation of the effects of peptide or peptide compounds BCC03-5RMP (SEQ ID NO:23), BCC03-MP (SEQ ID NO:24) and BCC03-5R (SEQ ID NO:20) against P. aeruginosa ATCC® strain 27853™ and E. coli ATCC® strain 25922™ (American Type Culture Collection, Manassas, Va.). […] Table 6 compares the activity of several other compounds, including the “5R” versions of BCC01, i.e., SEQ ID NO:18 (which comprises SEQ ID NO:1 with five additional arginines), the “5R” version of BCC02 (i.e., SEQ ID NO:19, which comprises SEQ ID NO:2 with five additional arginines), and BCC03-5RMP (SEQ ID NO:23), and BCC03-MP (SEQ ID NO:24, i.e., without the five additional R residues). The data generally indicate the superiority of BCC03-5RMP (SEQ ID NO:23) against E. coli, and the superiority of the 5R or 5RMP versions of the peptide over the “AEEA only” peptide against P. aeruginosa."}, "[3]": {"test_system": "TNF-α release from LPS-stimulated RAW264.7 cells", "experiment": "LPS neutralization: TNF-α release from LPS-stimulated RAW264.7 cells", "assay_type": "cell-based, mouse", "conditions": "Pseudomonas LPS", "description": "(§1) The well-characterized response of RAW264.7 macrophage cells was used to produce tumor necrosis-factor-alpha (TNF-α) in response to LPS to determine whether the peptides could dampen the release of this cytokine. […] Importantly, pre-treatment (3 hours prior to LPS addition) as well as post-treatment of the RAW264.7 cells (3 hours post LPS addition) with peptide dampened the cytokine release. […] The finding that the novel peptides bind and neutralize the effect of Pseudomonas LPS is of critical importance since this ensures that the novel therapeutic peptide compounds described herein will not only kill the bacteria, but will also neutralize the LPS endotoxin released by the bacteria which plays such an important role in the rapid progression of sepsis.\n(§2) BCC01-5RMP (SEQ ID NO:21), BCC02-5RMP (SEQ ID NO:22), and BCC03-5RMP (SEQ ID NO:23) were tested for their ability to bind lipopolysaccharide (LPS) using the limulus amebocyte lysate method (LAL). […] There was no statistical difference in their ability to bind LPS using the LAL technique. The ability of the peptides to neutralize LPS was assessed by determining their ability to attenuate the release of tumor necrosis factor-alpha (TNF-α) from LPS-stimulated RAW264.7 cells (a mouse macrophage cell line). […] No significant differences were observed between the three peptides to neutralize LPS as measured by cytokine release."}, "[4]": {"experiment": "LPS binding, Limulus Amebocyte Lysate (LAL) assay", "design": "species or system Pseudomonas", "description": "as §1, §2"}},
  "note": "Like-named read-outs stand apart in the source and are kept apart here. Square brackets hold non-standard residues; d marks the D form. Peptide text beside a SMILES is read from it. AEEA = NCCOCCOCC(=O)O",
  "data": [
    {"smiles": "CC[C@H](C)[C@H](NC(=O)[C@H](CC(C)C)NC(=O)[C@H](C)NC(=O)CNC(=O)CNC(=O)[C@H](CS)NC(=O)[C@H](Cc1ccccc1)NC(=O)[C@H](Cc1c[nH]cn1)NC(=O)[C@H](CCCNC(=N)N)NC(=O)CNC(=O)[C@H](CCC(N)=O)NC(=O)[C@H](CC(N)=O)NC(=O)[C@H](CCCNC(=N)N)NC(=O)[C@H](CCCNC(=N)N)NC(=O)[C@H](CCCNC(=N)N)NC(=O)[C@H](CCCNC(=N)N)NC(=O)COCCOCCNC(=O)COCCOCCN)C(=O)N[C@@H](Cc1c[nH]cn1)C(=O)N[C@@H](C)C(=O)N[C@@H](CCCNC(=N)N)C(=O)N[C@@H](Cc1ccccc1)C(=O)N[C@H](C(=O)N[C@@H](CCSC)C(=O)N[C@H](C(=O)N[C@@H](C)C(=O)N[C@@H](C)C(=O)N[C@@H](CO)C(=O)N[C@@H](CS)C(=O)N[C@@H](Cc1ccccc1)C(=O)N[C@@H](CCC(N)=O)C(=O)N[C@@H](CCCNC(=N)N)C(=O)O)[C@@H](C)O)C(C)C", "note": "[BCC01-5RMP] (H-[AEEA][AEEA]RRRRNQGRHFCGGALIHARFVMTAASCFQR-OH)", "values": [
      {"measurement": "Log reduction of Pseudomonas", "setting": "[1]; starting inoculum 1×10^6 CFU/ml, 60 to 180 minute incubation", "result": 5},
      {"measurement": "Log reduction of E. coli", "setting": "[2]; 25, starting inoculum 1×10^6 CFU/ml, 60 to 180 minute incubation", "result": 3},
      {"measurement": "neutralization of LPS: release of TNF-α", "setting": "[3]", "result": "attenuate the release of TNF-α"},
      {"measurement": "binding of Pseudomonas LPS", "setting": "[4]", "result": "bound Pseudomonas LPS"}
    ]},
    {"smiles": "CC[C@H](C)[C@H](NC(=O)[C@H](CC(C)C)NC(=O)[C@H](C)NC(=O)CNC(=O)CNC(=O)[C@H](CS)NC(=O)[C@H](Cc1ccccc1)NC(=O)[C@H](Cc1c[nH]cn1)NC(=O)[C@H](CCCNC(=N)N)NC(=O)CNC(=O)[C@H](CCC(N)=O)NC(=O)[C@H](CC(N)=O)NC(=O)[C@H](CCCNC(=N)N)NC(=O)[C@H](CCCNC(=N)N)NC(=O)[C@H](CCCNC(=N)N)NC(=O)[C@H](CCCNC(=N)N)NC(=O)COCCOCCNC(=O)COCCOCCN)C(=O)N[C@@H](Cc1c[nH]cn1)C(=O)N[C@@H](C)C(=O)N[C@@H](CCCNC(=N)N)C(=O)N[C@@H](Cc1ccccc1)C(=O)N[C@H](C(=O)N[C@@H](CCSC)C(=O)N[C@H](C(=O)N[C@@H](C)C(=O)N[C@@H](C)C(=O)N[C@@H](CO)C(=O)N[C@@H](CO)C(=O)N[C@@H](Cc1ccccc1)C(=O)N[C@@H](CCC(N)=O)C(=O)N[C@@H](CCCNC(=N)N)C(=O)O)[C@@H](C)O)C(C)C", "note": "[BCC03-5RMP] (H-[AEEA][AEEA]RRRRNQGRHFCGGALIHARFVMTAASSFQR-OH; N-terminus assumed)", "values": [
      {"measurement": "Effects of Peptide Compounds on Pseudomonas aeruginosa ATCC ® 27853 ™", "setting": "[1]; 0.78 μg/ml", "result": 87.4},
      {"measurement": "Effects of Peptide Compounds on Pseudomonas aeruginosa ATCC ® 27853 ™", "setting": "[1]; 1.56 μg/ml", "result": 96.6},
      {"measurement": "Effects of Peptide Compounds on Pseudomonas aeruginosa ATCC ® 27853 ™", "setting": "[1]; 3.125 μg/ml", "result": 98.4},
      {"measurement": "Effects of Peptide Compounds on Pseudomonas aeruginosa ATCC ® 27853 ™", "setting": "[1]; 6.25 μg/ml", "result": 99.8},
      {"measurement": "Effects of Peptide Compounds on Pseudomonas aeruginosa ATCC ® 27853 ™", "setting": "[1]; 12.5 μg/ml", "result": 99.9},
      {"measurement": "Effects of Peptide Compounds on Pseudomonas aeruginosa ATCC ® 27853 ™", "setting": "[1]; 25 μg/ml", "result": 100.0},
      {"measurement": "Effects of Peptide Compounds on Pseudomonas aeruginosa ATCC ® 27853 ™", "setting": "[1]; 50 μg/ml", "result": 100.0},
      {"measurement": "Effects of Peptide Compounds on Pseudomonas aeruginosa ATCC ® 27853 ™", "setting": "[1]; 100 μg/ml", "result": 100.0},
      {"measurement": "Effects of Peptide Compounds on Pseudomonas aeruginosa ATCC ® 27853 ™", "setting": "[1]; 200 μg/ml", "result": 100.0},
      {"measurement": "Effects of Peptide Compounds on Escherichia coli ATCC ® 25922 ™", "setting": "[2]; 0.78 μg/ml", "result": 12.3},
      {"measurement": "Effects of Peptide Compounds on Escherichia coli ATCC ® 25922 ™", "setting": "[2]; 1.56 μg/ml", "result": 23.0},
      {"measurement": "Effects of Peptide Compounds on Escherichia coli ATCC ® 25922 ™", "setting": "[2]; 3.125 μg/ml", "result": 32.8},
      {"measurement": "Effects of Peptide Compounds on Escherichia coli ATCC ® 25922 ™", "setting": "[2]; 6.25 μg/ml", "result": 78.7},
      {"measurement": "Effects of Peptide Compounds on Escherichia coli ATCC ® 25922 ™", "setting": "[2]; 12.5 μg/ml", "result": 99.3},
      {"measurement": "Effects of Peptide Compounds on Escherichia coli ATCC ® 25922 ™", "setting": "[2]; 25 μg/ml", "result": 99.7},
      {"measurement": "Effects of Peptide Compounds on Escherichia coli ATCC ® 25922 ™", "setting": "[2]; 50 μg/ml", "result": 99.9},
      {"measurement": "Effects of Peptide Compounds on Escherichia coli ATCC ® 25922 ™", "setting": "[2]; 100 μg/ml", "result": 99.9},
      {"measurement": "Effects of Peptide Compounds on Escherichia coli ATCC ® 25922 ™", "setting": "[2]; 200 μg/ml", "result": 99.9},
      {"measurement": "neutralization of LPS: release of TNF-α", "setting": "[3]", "result": "attenuate the release of TNF-α"},
      {"measurement": "binding of Pseudomonas LPS", "setting": "[4]", "result": "bound Pseudomonas LPS"}
    ]}
  ]
}
